Data: US8575116B1, “Polyacetylenic compounds for protecting against pancreatic islet atrophy” (Academia Sinica, priority 2010, dated 2013)

Assays:
RIN-m5F cells = experiment: Intracellular calcium (Fura 2-AM) in RIN-m5F cells; type: cell-based, rat; details: cytopiloyne 7, 14 and 28 μM, glucose 16.7 mM
Description: FIGS. 5A-D show the effects of cytopiloyne on calcium mobilization, DAG generation and PKCa activation. (A) After Fura 2-AM loading, RIN-m5F cells were stimulated with 16.7 mM glucose (HG) and cytopiloyne at 7, 14 and 28 μM. Level of intracellular calcium, as shown by the 340/380 nm ratio, was detected using a fluorescence spectrophotometer. (B) RIN-m5F cells were pulsed with ^3H-myristic acid (5 Cim1^−1) for 16 hours. After washing, the cells were stimulated with glucose, cytopiloyne, PMA and glimepiride. Total lipids were separated on a silica thin layer plate. DAG and cholesterol were visualized with iodine vapor and identified by their standards. (C) RIN-m5F cells were incubated with vehicle (Mock), cytopiloyne (CP, 3, 7 and 14 μM), PMA (1 μM) and 16.7 mM (HG). Membrane or cytosolic proteins were subjected to Western blot with anti-PKCα and anti-Actin antibodies. (D) RIN-m5F cells were incubated with vehicle (Mock), cytopiloyne (CP 7 μM) and PMA (1 μM). […]
RIN-m5F cells were pre-loaded with Fura 2-AM (5 μM) in modified Krebs-Henseleit buffer for 30 min at 25° C. […] Intracellular calcium of the cells was measured using a fluorescence spectrophotometer (CAF 110, Jasco, Tokyo, Japan) at excitation wavelengths of 340 and 380 nm and an emission wavelength of 500 nm. The ratio of fluorescence intensity at 340 nm to that at 380 nm represents the level of intracellular calcium.

[1] = test system: rat pancreatic islet cells; experiment: Intracellular staining for insulin and FACS in rat pancreatic islet cells; type: cell-based; details: 28 μM, brefeldin A, 24 h
Description: FIGS. 4A-C show an increase in insulin mRNA and protein content by cytopiloyne in pancreatic islet cells. (A) HIT-T15 β-cells transfected with phINS-Luc and pRL-TK plasmids were incubated with vehicle (NS), glimepiride (GLM, 10 μM), high glucose (HG, 16.7 mM) or cytopiloyne at 7, 14 or 28 μM. Ten μg of cell lysates from these cells underwent to dual luciferase assays. […] (C) Rat pancreatic islet cells were treated with vehicle, glucose (3.3 mM (LG) or 16.7 mM (HG)) or cytopiloyne (CP, 7, 14 and 28 μM) in the presence of brefeldin A for 24 h. After anti-insulin antibody staining, these cells underwent FACS analysis. The percentage of insulin-positive β-cells is shown. All the results from 3 independent experiments are expressed as mean±SEM, and P<0.05 was considered to be statistically significant (*).
The islets were disrupted into individual cells and underwent intracellular staining with anti-insulin antibody and FACS analysis.

CC#CC#CC#CC#CCCC(CO)O[C@@H]1O[C@H](CO)[C@@H](O)[C@H](O)[C@H]1O (stereo partly drawn) [cytopiloyne, 2-β-D-glucopyranosyloxy-1-hydroxytrideca-5,7,9,11-tetrayne]
intracellular calcium (340/380 nm ratio) (RIN-m5F cells): increased intracellular calcium in a dose-dependent manner | intracellular insulin levels compared to the vehicle treatment [1]: fivefold
